Our source for the MIC, IC50 and Ratio values is ChEMBL document CHEMBL3751822, “C1C2-linker substituted 1,5-naphthyridine analogues of oxabicyclooctane-linked NBTIs as broad-spectrum antibacterial agents (part 7)” (Medchemcomm, 2015).

In brackets after ≈: the same amount, converted by molar mass.

Assay [1] deals with Escherichia coli. Nature of the assay: Antibacterial activity against Escherichia coli ATCC 25922 by micro-broth dilution method. The assay is classed as functional.
Assay [2] deals with Acinetobacter baumannii. Briefly: Antibacterial activity against Acinetobacter baumannii IID876 by micro-broth dilution method. Format: functional. For orientation: In broth dilution the organism is exposed to a series of concentrations in liquid medium.
Assay [3] deals with Streptococcus pneumoniae. Briefly: Antibacterial activity against Streptococcus pneumoniae IID553 by micro-broth dilution method. The assay is classed as functional.
For assay [4], the system named is Staphylococcus aureus. Briefly: Antibacterial activity against Staphylococcus aureus Smith by micro-broth dilution method. Format: functional.
In assay [5] the test system is Staphylococcus aureus. Briefly: Antibacterial activity against methicillin resistant Staphylococcus aureus OIT971 by micro-broth dilution method. Format: functional.
For assay [6], the system named is Enterococcus faecium. Briefly: Antibacterial activity against Enterococcus faecium VanA by micro-broth dilution method. The assay is classed as functional.
Assay [7] has as its system Pseudomonas aeruginosa. Nature of the assay: Antibacterial activity against Pseudomonas aeruginosa PAO1 by micro-broth dilution method. Format: functional.
Assay [8] concerns the target Voltage-gated inwardly rectifying potassium channel KCNH2 (Homo sapiens, UniProt Q12809). Briefly: Displacement of MK499 from human ERG.
Assay [9] relates to Staphylococcus aureus. Nature of the assay: Ratio of MIC for quinolone-resistant Staphylococcus aureus MS5935 to MIC for quinolone-sensitive Staphylococcus aureus MS5935. Format: functional.
The mark [10] stands for this setting: Escherichia coli, ATCC 25922, read-out: MIC.
[11] abbreviates: Acinetobacter baumannii, IID876, read-out: MIC.
The mark [12] stands for this setting: Streptococcus pneumoniae, IID553, read-out: MIC.
The mark [13] stands for this setting: Staphylococcus aureus, Smith, read-out: MIC.
Where [14] appears, read: Staphylococcus aureus, OIT971, read-out: MIC.
The mark [15] stands for this setting: Enterococcus faecium, VanA, read-out: MIC.
[16] abbreviates: Pseudomonas aeruginosa, PAO1, read-out: MIC.

Chain of Voltage-gated inwardly rectifying potassium channel KCNH2 (Q12809 whole entry): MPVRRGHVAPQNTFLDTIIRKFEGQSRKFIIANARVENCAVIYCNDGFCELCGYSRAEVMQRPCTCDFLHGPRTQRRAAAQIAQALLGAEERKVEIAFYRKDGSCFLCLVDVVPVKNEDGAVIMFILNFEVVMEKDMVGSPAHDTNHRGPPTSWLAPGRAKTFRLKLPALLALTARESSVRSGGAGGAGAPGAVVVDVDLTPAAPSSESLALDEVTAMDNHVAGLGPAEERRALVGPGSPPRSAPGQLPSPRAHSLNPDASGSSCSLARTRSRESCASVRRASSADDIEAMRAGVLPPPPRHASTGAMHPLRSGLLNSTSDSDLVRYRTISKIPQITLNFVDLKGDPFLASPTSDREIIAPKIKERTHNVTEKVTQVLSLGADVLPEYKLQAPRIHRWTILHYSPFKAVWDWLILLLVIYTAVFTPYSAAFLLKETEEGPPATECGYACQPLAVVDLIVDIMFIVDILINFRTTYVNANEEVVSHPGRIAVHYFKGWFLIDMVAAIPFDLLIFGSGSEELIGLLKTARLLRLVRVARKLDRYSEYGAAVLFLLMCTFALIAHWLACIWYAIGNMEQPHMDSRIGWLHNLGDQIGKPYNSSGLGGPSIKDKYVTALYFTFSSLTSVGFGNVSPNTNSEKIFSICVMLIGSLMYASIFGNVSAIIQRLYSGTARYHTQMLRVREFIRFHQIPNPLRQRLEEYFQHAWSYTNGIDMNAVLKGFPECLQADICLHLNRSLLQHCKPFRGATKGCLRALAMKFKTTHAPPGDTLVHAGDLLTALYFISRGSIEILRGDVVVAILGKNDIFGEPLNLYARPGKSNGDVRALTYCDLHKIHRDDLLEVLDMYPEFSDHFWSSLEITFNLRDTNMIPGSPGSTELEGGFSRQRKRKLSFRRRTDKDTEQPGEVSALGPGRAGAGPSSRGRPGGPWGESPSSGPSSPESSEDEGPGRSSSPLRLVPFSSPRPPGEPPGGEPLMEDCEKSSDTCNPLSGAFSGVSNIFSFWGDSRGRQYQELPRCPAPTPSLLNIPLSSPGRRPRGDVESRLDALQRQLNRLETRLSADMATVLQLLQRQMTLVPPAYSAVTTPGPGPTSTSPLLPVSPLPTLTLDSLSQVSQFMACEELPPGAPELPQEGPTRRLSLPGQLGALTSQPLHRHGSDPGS

Usually MIC stands for the smallest concentration in the dilution series that meets the test's criterion for growth inhibition. Turning to `COc1ccc2ncc(F)c(CC(OCCO)C34CCC(NCc5ccc6c(n5)NC(=O)CO6)(CC3)CO4)c2n1` (racemic), the MIC in [1] (setting [10]) was 32 µg/mL (≈ 57.8 µM); in [2] (setting [11]), 32 µg/mL (≈ 57.8 µM); in [3] (setting [12]), 8 µg/mL (≈ 14.5 µM); in assay [4] (setting [13]), 2 µg/mL (≈ 3.61 µM); in [5] (setting [14]), 2 µg/mL (≈ 3.61 µM); in [6] (setting [15]) it was 32 µg/mL (≈ 57.8 µM). Further, the minimum inhibitory concentration (MIC) in [7] (setting [16]) was 32 µg/mL (≈ 57.8 µM).

With `COc1ccc2ncc(F)c(CC(F)C34CCC(NCc5ccc6c(n5)NC(=O)CO6)(CC3)CO4)c2n1` (racemic), the MIC in [1] (setting [10]) was determined as 8 µg/mL (≈ 15.6 µM); in assay [2] (setting [11]), 8 µg/mL (≈ 15.6 µM); in [3] (setting [12]), 1 µg/mL (≈ 1.95 µM); in assay [4] (setting [13]), 0.25 µg/mL (≈ 0.489 µM); in assay [5] (setting [14]) it was 0.25 µg/mL (≈ 0.489 µM); in [6] (setting [15]), 8 µg/mL (≈ 15.6 µM). Further, the MIC in [7] (setting [16]) stood at 8 µg/mL (≈ 15.6 µM).

The term IC50 denotes the concentration that gives 50% inhibition. Turning to `COc1ccc2ncc(F)c(C(O)CC34CCC(NCc5ccc6c(n5)NC(=O)CO6)(CC3)CO4)c2n1` (single isomer, unassigned; (-)), the MIC in assay [1] was 4 µg/mL (≈ 7.85 µM); in assay [2] it was 1 µg/mL (≈ 1.96 µM); in assay [3], 0.25 µg/mL (≈ 0.491 µM); in assay [4], 0.03 µg/mL (≈ 0.0589 µM); in [5] it was 0.03 µg/mL (≈ 0.0589 µM); in [6], 2 µg/mL (≈ 3.93 µM). Also, in [7], the MIC was found to be 16 µg/mL (≈ 31.4 µM). In assay [8], this molecule had an IC50 of 1300 nM.

With `COc1ccc2ncc(F)c(CC(O)(C(F)(F)F)C34CCC(NCc5ccc6c(n5)NC(=O)CO6)(CC3)CO4)c2n1` (racemic), the MIC in assay [1] (setting [10]) is 32 µg/mL (≈ 55.4 µM); in assay [2] (setting [11]), 32 µg/mL (≈ 55.4 µM); in [3] (setting [12]), 4 µg/mL (≈ 6.93 µM); in assay [4] (setting [13]), 0.5 µg/mL (≈ 0.866 µM); in assay [5] (setting [14]) it was 0.5 µg/mL (≈ 0.866 µM); in assay [6] (setting [15]), 32 µg/mL (≈ 55.4 µM). Besides, the MIC in assay [7] (setting [16]) is 32 µg/mL (≈ 55.4 µM).

With `COc1ccc2ncc(F)c(CCC34CCC(NCc5ccc6c(n5)NC(=O)CO6)(CC3)CO4)c2n1`, the Ratio in assay [9] is listed as 2.

Take `COc1ccc2ncc(F)c(CC(NOC(C)=O)C34CCC(NCc5ccc6c(n5)NC(=O)CO6)(CC3)CO4)c2n1` (racemic): the MIC is 32 µg/mL (≈ 56.5 µM) in assay [1] (setting [10]); 32 µg/mL (≈ 56.5 µM) in assay [2] (setting [11]); 16 µg/mL (≈ 28.2 µM) in assay [3] (setting [12]); 2 µg/mL (≈ 3.53 µM) in [4] (setting [13]); 2 µg/mL (≈ 3.53 µM) in assay [5] (setting [14]); 32 µg/mL (≈ 56.5 µM) in [6] (setting [15]). In assay [7] (setting [16]), the MIC stood at 32 µg/mL (≈ 56.5 µM).

As to `COc1ccc2ncc(F)c(C[C@H](OC)C34CCC(NCc5ccc6c(n5)NC(=O)CO6)(CC3)CO4)c2n1`, the MIC was 16 µg/mL (≈ 30.6 µM) in assay [1] (setting [10]); 8 µg/mL (≈ 15.3 µM) in assay [2] (setting [11]); 2 µg/mL (≈ 3.82 µM) in [3] (setting [12]); 0.25 µg/mL (≈ 0.477 µM) in [4] (setting [13]); 0.25 µg/mL (≈ 0.477 µM) in assay [5] (setting [14]); 8 µg/mL (≈ 15.3 µM) in assay [6] (setting [15]). In [7] (setting [16]), the MIC is 16 µg/mL (≈ 30.6 µM).

As for `COc1ccc2ncc(F)c(CC(N)C34CCC(NCc5ccc6c(n5)NC(=O)CO6)(CC3)CO4)c2n1` (single isomer, unassigned; (+)), the MIC in assay [1] (setting [10]) was found to be 1 µg/mL (≈ 1.97 µM); in assay [2] (setting [11]) it was 0.25 µg/mL (≈ 0.492 µM); in assay [3] (setting [12]) it was 2 µg/mL (≈ 3.93 µM); in assay [4] (setting [13]), 0.25 µg/mL (≈ 0.492 µM); in assay [5] (setting [14]), 0.25 µg/mL (≈ 0.492 µM); in assay [6] (setting [15]), 8 µg/mL (≈ 15.7 µM). In addition, in [7] (setting [16]), the MIC worked out at 16 µg/mL (≈ 31.5 µM).

Consider `COc1ccc2ncc(F)c(CC(OCC(=O)O)C34CCC(NCc5ccc6c(n5)NC(=O)CO6)(CC3)CO4)c2n1` (racemic), for which the MIC in assay [1] (setting [10]) turned out to be 32 µg/mL (≈ 56.4 µM); in assay [2] (setting [11]), 32 µg/mL (≈ 56.4 µM); in [3] (setting [12]), 32 µg/mL (≈ 56.4 µM); in assay [4] (setting [13]) it was 4 µg/mL (≈ 7.05 µM); in assay [5] (setting [14]) it was 4 µg/mL (≈ 7.05 µM); in assay [6] (setting [15]), 32 µg/mL (≈ 56.4 µM). Moreover, in [7] (setting [16]), the MIC turned out to be 32 µg/mL (≈ 56.4 µM).

Regarding `CO/N=C(/Cc1c(F)cnc2ccc(OC)nc12)C12CCC(NCc3ccc4c(n3)NC(=O)CO4)(CC1)CO2`, the MIC in assay [1] (setting [10]), in assay [2] (setting [11]), in assay [3] (setting [12]), in assay [4] (setting [13]), in [5] (setting [14]) and in [6] (setting [15]) was 16 µg/mL (≈ 29.8 µM) in each case. Further, the MIC in [7] (setting [16]) is 16 µg/mL (≈ 29.8 µM). For the same molecule, the Ratio in assay [9] is reported as under 4. This molecule also had an IC50 in assay [8] of 2500 nM.

Consider `COc1ccc2ncc(F)c(CC(=O)C34CCC(NCc5ccc6c(n5)NC(=O)CO6)(CC3)CO4)c2n1`, for which the MIC in assay [1] (setting [10]) came out at 16 µg/mL (≈ 31.5 µM); in assay [2] (setting [11]), 2 µg/mL (≈ 3.94 µM); in assay [3] (setting [12]) it was 0.25 µg/mL (≈ 0.493 µM); in assay [4] (setting [13]), 0.13 µg/mL (≈ 0.256 µM); in [5] (setting [14]), 0.13 µg/mL (≈ 0.256 µM); in [6] (setting [15]), 4 µg/mL (≈ 7.88 µM). Also, the MIC in assay [7] (setting [16]) is 16 µg/mL (≈ 31.5 µM).

As to `COc1ccc2ncc(F)c(C/C(=N/O)C34CCC(NCc5ccc6c(n5)NC(=O)CO6)(CC3)CO4)c2n1`, the MIC in [1] (setting [10]), in assay [2] (setting [11]), in assay [3] (setting [12]), in assay [4] (setting [13]), in assay [5] (setting [14]) and in assay [6] (setting [15]) was 16 µg/mL (≈ 30.6 µM) in each case. Also, the MIC in assay [7] (setting [16]) was found to be 16 µg/mL (≈ 30.6 µM). For the same molecule, in [9], the Ratio is reported as under 4. In addition, the IC50 in assay [8] worked out at 5400 nM.
